Measurements reported in article PMC7954794, “Protein context shapes the specificity of SH3 domain-mediated interactions in vivo” (Nature Communications, 2021).

System: Abp1 PPIs
Assay: DHFR-PCA of Abp1 SH3-swapped baits (Fig. 2B-D, S2C, S2F);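 as to Protein-protein interaction distance between Abp1 SH3-swapped baits, to ABP1: Euclidean distance between DHFR-PCA score profiles of the baits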;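 as to Protein-protein interaction distance between Abp1 SH3-swapped baits, to BEM1-2: Euclidean distance between DHFR-PCA score profiles of the baits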;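 as to Protein-protein interaction distance between Abp1 SH3-swapped baits, to BOI1: Euclidean distance between DHFR-PCA score profiles of the baits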;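 as to Protein-protein interaction distance between Abp1 SH3-swapped baits, to BZZ1-1: Euclidean distance between DHFR-PCA score profiles of the baits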
Type: cell-based, Saccharomyces cerevisiae
Text: Having determined that multiple PPIs require SH3s, we asked whether the latter establish PPI specificity independently from their host proteins by swapping domains (Fig. 2A). Using the second round of genome editing, we individually replaced Abp1 SH3 with the 27 yeast SH3s and 3 human Abp1 orthologs’ SH3s (CTTN, HCLS1, and DBNL, Fig. 2B). The reintroduction of its own SH3 (Abp1SH3 in Abp1) reconstitutes almost perfectly Abp1’s interaction profile (Kendall’s τ = 0.93, Fig. 2B). […] No homologous SH3 domain fully re-establishes the normal Abp1 PPI profile (Fig. 2B and Supplementary Fig. 2C). However, we observe a significant correlation (cophenetic correlation = 0.20, p value = 0.005, Fig. 2C) between the similarity of PPI profiles (Fig. 2B) and the sequence similarity of the SH3s. […] Nonetheless, a subset of SH3-dependent PPIs is only observed with the endogenous domain. For instance, Hua2 and App1, both well-characterized partners of Abp1[14],[18],[19], are only detected when Abp1 contains its own SH3 (WT or swapped via editing). A given SH3 may therefore not be fully replaceable with other paralogous or orthologous domains. This pattern is confirmed by cellular growth phenotypic analyses (Supplementary Fig. 2D, E). PPIs, SH3 sequence similarity, and growth profiles under stress conditions are correlated (Supplementary Fig. 2D, E). This relationship is particularly clear when analyzing growth on media supplemented with hygromycin.
The stuffing of YSC84 SH3 rendered the strain sterile and was therefore not used for this study as the assays require crosses. For genes containing two SH3s (BZZ1 and BEM1), a combination of this first stuffer with a second one ([…]) coding for a highly similar linker ([…]) was used, which allowed targeting each SH3 position independently. The two N-terminal domains of SLA1, which are separated by six nucleotides, were stuffed by a single stuffer. Cells containing pCAS were selected via the G418 resistance cassette from the plasmid on YPD plates (YPD + NAT 100 μg/ml (DHFR F[1,2] selection) + G418 200 µg/mL (Bioshop Canada)). Colonies were randomly selected and grown in YPD media without G418 to allow plasmid loss. The correct insertion of the stuffer was validated by PCR and Sanger sequencing. The SH3-swapped, -shuffled, and -mutated strains were constructed following a second CRISPR–Cas9 editing step with the same procedures. The stuffer sequences were targeted by specific gRNAs (one gRNA per stuffer) and replaced by PCR amplified specific SH3 (with 40 bp homology arms) or libraries of mutated SH3 domains for Deep Mutational Scanning (DMS) with 78 bp flanking homology regions. Validation of the SH3 domain insertions was done as we previously described except for DMS libraries (see below).
The overall DHFR-PCA pipeline is based on Tarassov et al.[43] and the procedures have also been published as a visualized protocol. The screens were performed with robotically manipulated pin tools (BM5-SC1, S&P Robotics Inc.). First, the preys were cherry-picked from 96-well plates to omnitrays in a 384 format on YPD + HPH solid media. Plates were then combined into the 1536 format on YPD + HPH. The array was constituted of 575 preys previously shown to interact physically with at least one SH3-containing protein as reported in BioGRID V3.4.16 along with 40 negative controls. The prey array comprised a border of control strains of two rows and two columns corresponding to the PPI between LSM8-DHFR F[1,2] and CDC39-DHFR F[3]. This double border was used to remove border effects. Preys are present in duplicate at a randomized position in the 1536 array (except for YAL041W which is present four times per array). Baits were crossed with two prey plates, resulting in four independent bait–prey tests for each PPI. Baits were grown in liquid YPD + NAT and then transferred on solid YPD + NAT omnitrays. They were then replicated on YPD + NAT omnitrays in 1536 array format. […]

[1] = number of PPIs, difference, Abp1 SH3-swapped with the listed SH3, Fig2D,S2F

## RVS167
Abp1 bait with swapped SH3, distance to bait with ABP1 SH3, sheet Fig2C
  Protein-protein interaction distance between Abp1 SH3-swapped baits, to ABP1: 9.548
Distance to Abp1 bait with BBC1 SH3, sheet Fig2C
  Protein-protein interaction distance between Abp1 SH3-swapped baits, to BBC1: 9.304
Distance to Abp1 bait with BEM1-1 SH3, sheet Fig2C
  Protein-protein interaction distance between Abp1 SH3-swapped baits, to BEM1-1: 14.67
Distance to Abp1 bait with BEM1-2 SH3, sheet Fig2C
  Protein-protein interaction distance between Abp1 SH3-swapped baits, to BEM1-2: 33.63
Distance to Abp1 bait with BOI1 SH3, sheet Fig2C
  Protein-protein interaction distance between Abp1 SH3-swapped baits, to BOI1: 11.58
Distance to Abp1 bait with BOI2 SH3, sheet Fig2C
  Protein-protein interaction distance between Abp1 SH3-swapped baits, to BOI2: 15.22
Distance to Abp1 bait with BUD14 SH3, sheet Fig2C
  Protein-protein interaction distance between Abp1 SH3-swapped baits, to BUD14: 18.02
Distance to Abp1 bait with BZZ1-1 SH3, sheet Fig2C
  Protein-protein interaction distance between Abp1 SH3-swapped baits, to BZZ1-1: 5.914
Distance to Abp1 bait with BZZ1-2 SH3, sheet Fig2C
  Protein-protein interaction distance between Abp1 SH3-swapped baits, to BZZ1-2: 11.17
Distance to Abp1 bait with CDC25 SH3, sheet Fig2C
  Protein-protein interaction distance between Abp1 SH3-swapped baits, to CDC25: 27.4
Distance to Abp1 bait with CTTN SH3, sheet Fig2C
  Protein-protein interaction distance between Abp1 SH3-swapped baits, to CTTN: 12.4
Distance to Abp1 bait with CYK3 SH3, sheet Fig2C
  Protein-protein interaction distance between Abp1 SH3-swapped baits, to CYK3: 28.09
Distance to Abp1 bait with DBNL SH3, sheet Fig2C
  Protein-protein interaction distance between Abp1 SH3-swapped baits, to DBNL: 5.554
Distance to Abp1 bait with FUS1 SH3, sheet Fig2C
  Protein-protein interaction distance between Abp1 SH3-swapped baits, to FUS1: 19.5
Distance to Abp1 bait with HCLS1 SH3, sheet Fig2C
  Protein-protein interaction distance between Abp1 SH3-swapped baits, to HCLS1: 7.638
Distance to Abp1 bait with HOF1 SH3, sheet Fig2C
  Protein-protein interaction distance between Abp1 SH3-swapped baits, to HOF1: 32.19
Distance to Abp1 bait with HSE1 SH3, sheet Fig2C
  Protein-protein interaction distance between Abp1 SH3-swapped baits, to HSE1: 7.315
Distance to Abp1 bait with LSB1 SH3, sheet Fig2C
  Protein-protein interaction distance between Abp1 SH3-swapped baits, to LSB1: 7.392
Distance to Abp1 bait with LSB3 SH3, sheet Fig2C
  Protein-protein interaction distance between Abp1 SH3-swapped baits, to LSB3: 7.852
Distance to Abp1 bait with MYO3 SH3, sheet Fig2C
  Protein-protein interaction distance between Abp1 SH3-swapped baits, to MYO3: 9.049
Distance to Abp1 bait with MYO5 SH3, sheet Fig2C
  Protein-protein interaction distance between Abp1 SH3-swapped baits, to MYO5: 7.689
Distance to Abp1 bait with NBP2 SH3, sheet Fig2C
  Protein-protein interaction distance between Abp1 SH3-swapped baits, to NBP2: 17.22
Distance to Abp1 bait with PEX13 SH3, sheet Fig2C
  Protein-protein interaction distance between Abp1 SH3-swapped baits, to PEX13: 4.587
Distance to Abp1 bait with PIN3 SH3, sheet Fig2C
  Protein-protein interaction distance between Abp1 SH3-swapped baits, to PIN3: 5.294
Distance to Abp1 bait with RVS167 SH3, sheet Fig2C
  Protein-protein interaction distance between Abp1 SH3-swapped baits, to RVS167: 0.00
Distance to Abp1 bait with SDC25 SH3, sheet Fig2C
  Protein-protein interaction distance between Abp1 SH3-swapped baits, to SDC25: 34.37
Distance to Abp1 bait with SHO1 SH3, sheet Fig2C
  Protein-protein interaction distance between Abp1 SH3-swapped baits, to SHO1: 6.815
Distance to Abp1 bait with SLA1-1 SH3, sheet Fig2C
  Protein-protein interaction distance between Abp1 SH3-swapped baits, to SLA1-1: 30.09
Distance to Abp1 bait with SLA1-2 SH3, sheet Fig2C
  Protein-protein interaction distance between Abp1 SH3-swapped baits, to SLA1-2: 19.9
Distance to Abp1 bait with SLA1-3 SH3, sheet Fig2C
  Protein-protein interaction distance between Abp1 SH3-swapped baits, to SLA1-3: 7.698
Distance to Abp1 bait with YSC84 SH3, sheet Fig2C
  Protein-protein interaction distance between Abp1 SH3-swapped baits, to YSC84: 8.283
[1]
  PPIs gained by Abp1 - SH3-dependent PPIs gained by Abp1: 9
  SH3-dependent PPIs - SH3-dependent PPIs gained by Abp1: 26
Number of PPIs, Abp1 SH3-swapped with the listed SH3, DHFR-PCA, Fig2D,S2F
  SH3-dependent PPIs gained by Abp1: 5
